pIC50: −log10 of the molar value.
Tested on: 186277-243-T-J2-PDC complex spheroid viability
Assay: Anticancer human tumor 186277-243-T-J2-PDC patient-derived colon adenocarcinoma cell line growth inhibition [GQUAD]
Conditions: for pIC50: curve of first compound; for viability, T/C: stronger effect = lower value
Procedure, shortened: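 Multi-cell-type spheroids of tumor cells with HUVEC and mesenchymal stem cells, treated with drug combinations. Concentrations descend in half-log steps from near clinical Cmax, or from 10 microM where Cmax is unknown; viability read-out.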

[1] = second compound 0.0316 µM, first compound 0.0316 µM
[2] = second compound 0.0316 µM, first compound 0.1 µM
[3] = second compound 0.0316 µM, first compound 0.316 µM
[4] = second compound 0.0316 µM, first compound 1 µM
[5] = second compound 0.0316 µM, first compound 3.16 µM
[6] = second compound 0.0316 µM, first compound 10 µM
[7] = second compound 0.1 µM, first compound 0.0316 µM
[8] = second compound 0.1 µM, first compound 0.1 µM
[9] = second compound 0.1 µM, first compound 0.316 µM
[10] = second compound 0.1 µM, first compound 1 µM
[11] = second compound 0.1 µM, first compound 3.16 µM
[12] = second compound 0.1 µM, first compound 10 µM
[13] = second compound 0.316 µM, first compound 0.0316 µM
[14] = second compound 0.316 µM, first compound 0.1 µM
[15] = second compound 0.316 µM, first compound 0.316 µM
[16] = second compound 0.316 µM, first compound 1 µM
[17] = second compound 0.316 µM, first compound 3.16 µM
[18] = second compound 0.316 µM, first compound 10 µM
[19] = second compound 1 µM, first compound 0.0316 µM
[20] = second compound 1 µM, first compound 0.1 µM
[21] = second compound 1 µM, first compound 0.316 µM
[22] = second compound 1 µM, first compound 1 µM
[23] = second compound 1 µM, first compound 3.16 µM
[24] = second compound 1 µM, first compound 10 µM
[25] = second compound 3.16 µM, first compound 0.0316 µM
[26] = second compound 3.16 µM, first compound 0.1 µM
[27] = second compound 3.16 µM, first compound 0.316 µM
[28] = second compound 3.16 µM, first compound 1 µM
[29] = second compound 3.16 µM, first compound 3.16 µM
[30] = second compound 3.16 µM, first compound 10 µM
[31] = second compound 10 µM, first compound 0.0316 µM
[32] = second compound 10 µM, first compound 0.1 µM
[33] = second compound 10 µM, first compound 0.316 µM
[34] = second compound 10 µM, first compound 1 µM
[35] = second compound 10 µM, first compound 3.16 µM
[36] = second compound 10 µM, first compound 10 µM
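Further: spheroids exposed to drugs for 7 days.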
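Wherever viability, T/C is given: 100% = DMSO vehicle control viability.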

## CC1COCCN1c1cc(C2(S(C)(=N)=O)CC2)nc(-c2ccnc3[nH]ccc23)n1 (stereo unspecified) + Cc1[nH]c2ccc(F)cc2c1-c1nc2c3cccnc3c3ncccc3c2[nH]1
Second compound 0.0316 µM
  pIC50: 6.10
Second compound 0.1 µM
  pIC50: 6.08
Second compound 0.316 µM
  pIC50: 5.92
Second compound 1 µM
  pIC50: 5.80
Second compound 3.16 µM
  pIC50: 5.94
Second compound 10 µM
  pIC50: 5.92
[1]
  viability, T/C: 109%
[2]
  viability, T/C: 104%
[3]
  viability, T/C: 105%
[4]
  viability, T/C: 35.6%
[5]
  viability, T/C: 11.1%
[6]
  viability, T/C: 10.7%
[7]
  viability, T/C: 109%
[8]
  viability, T/C: 88.3%
[9]
  viability, T/C: 87.7%
[10]
  viability, T/C: 42.6%
[11]
  viability, T/C: 13.2%
[12]
  viability, T/C: 4.44%
[13]
  viability, T/C: 87.7%
[14]
  viability, T/C: 89.4%
[15]
  viability, T/C: 117%
[16]
  viability, T/C: 58.1%
[17]
  viability, T/C: 10.9%
[18]
  viability, T/C: 8.17%
[19]
  viability, T/C: 91.1%
[20]
  viability, T/C: 85.8%
[21]
  viability, T/C: 101%
[22]
  viability, T/C: 74.2%
[23]
  viability, T/C: 15%
[24]
  viability, T/C: 8.18%
[25]
  viability, T/C: 102%
[26]
  viability, T/C: 92.4%
[27]
  viability, T/C: 97.5%
[28]
  viability, T/C: 53.5%
[29]
  viability, T/C: 16.3%
[30]
  viability, T/C: 7.22%
[31]
  viability, T/C: 90.1%
[32]
  viability, T/C: 98.2%
[33]
  viability, T/C: 96.9%
[34]
  viability, T/C: 57.2%
[35]
  viability, T/C: 12.8%
[36]
  viability, T/C: 6.82%

## O=C(c1cc(Cc2n[nH]c(=O)c3ccccc23)ccc1F)N1CCN(C(=O)C2CC2)CC1 + Cc1cnc(CNC(=O)c2c(=O)c3ccc(N4CCCN(C)CC4)nc3n3c2sc2ccccc23)cn1
Second compound 0.0316 µM
  pIC50: < 5.00
Second compound 0.1 µM
  pIC50: 5.30
Second compound 0.316 µM
  pIC50: < 5.00
Second compound 1 µM
  pIC50: > 7.50
Second compound 3.16 µM
  pIC50: > 7.50
Second compound 10 µM
  pIC50: > 7.50
[1]
  viability, T/C: 99.9%
[2]
  viability, T/C: 78.8%
[3]
  viability, T/C: 83.2%
[4]
  viability, T/C: 83.6%
[5]
  viability, T/C: 60.9%
[6]
  viability, T/C: 53%
[7]
  viability, T/C: 80.7%
[8]
  viability, T/C: 62.8%
[9]
  viability, T/C: 62.7%
[10]
  viability, T/C: 60.7%
[11]
  viability, T/C: 53%
[12]
  viability, T/C: 45.9%
[13]
  viability, T/C: 64.6%
[14]
  viability, T/C: 56.8%
[15]
  viability, T/C: 64.6%
[16]
  viability, T/C: 62.9%
[17]
  viability, T/C: 50.8%
[18]
  viability, T/C: 48.4%
[19]
  viability, T/C: 46.3%
[20]
  viability, T/C: 48.4%
[21]
  viability, T/C: 43.5%
[22]
  viability, T/C: 47.9%
[23]
  viability, T/C: 50%
[24]
  viability, T/C: 49%
[25]
  viability, T/C: 44.2%
[26]
  viability, T/C: 39.2%
[27]
  viability, T/C: 38.3%
[28]
  viability, T/C: 38.2%
[29]
  viability, T/C: 43.5%
[30]
  viability, T/C: 38.9%
[31]
  viability, T/C: 33.1%
[32]
  viability, T/C: 42.3%
[33]
  viability, T/C: 34.7%
[34]
  viability, T/C: 43.8%
[35]
  viability, T/C: 49.5%
[36]
  viability, T/C: 38.9%

## C#Cc1c(F)ccc2cc(O)cc(-c3ncc4c(N5CC6CCC(C5)N6)nc(OCC56CCCN5CC(F)C6)nc4c3F)c12 (stereo unspecified) + Cc1[nH]c2ccc(F)cc2c1-c1nc2c3cccnc3c3ncccc3c2[nH]1
Second compound 0.0316 µM
  pIC50: 7.13
Second compound 0.1 µM
  pIC50: 7.07
Second compound 0.316 µM
  pIC50: 7.19
Second compound 1 µM
  pIC50: 7.21
Second compound 3.16 µM
  pIC50: 7.29
Second compound 10 µM
  pIC50: > 7.50
[1]
  viability, T/C: 94.1%
[2]
  viability, T/C: 34.5%
[3]
  viability, T/C: 14.3%
[4]
  viability, T/C: 7.64%
[5]
  viability, T/C: 7.24%
[6]
  viability, T/C: 5.55%
[7]
  viability, T/C: 106%
[8]
  viability, T/C: 41.1%
[9]
  viability, T/C: 14.2%
[10]
  viability, T/C: 8.6%
[11]
  viability, T/C: 7.78%
[12]
  viability, T/C: 5.66%
[13]
  viability, T/C: 78.1%
[14]
  viability, T/C: 30.7%
[15]
  viability, T/C: 18.1%
[16]
  viability, T/C: 7.67%
[17]
  viability, T/C: 7.43%
[18]
  viability, T/C: 3.69%
[19]
  viability, T/C: 68.6%
[20]
  viability, T/C: 36%
[21]
  viability, T/C: 17.7%
[22]
  viability, T/C: 7.93%
[23]
  viability, T/C: 6.21%
[24]
  viability, T/C: 5.18%
[25]
  viability, T/C: 56%
[26]
  viability, T/C: 42.3%
[27]
  viability, T/C: 19.2%
[28]
  viability, T/C: 10.7%
[29]
  viability, T/C: 5.86%
[30]
  viability, T/C: 3.99%
[31]
  viability, T/C: 47.4%
[32]
  viability, T/C: 38.2%
[33]
  viability, T/C: 16.8%
[34]
  viability, T/C: 7.64%
[35]
  viability, T/C: 7.32%
[36]
  viability, T/C: 2.6%
